Results reported in ChEMBL document CHEMBL1201862, “PubChem BioAssay data set” (2004).
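In this assay, cells in 96-well plates receive the compound at five concentrations for 48 hours. Endpoints are linearly interpolated between the surrounding concentrations. GI50 = concentration required for 50% inhibition of growth.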 The source made the active and inactive calls. Rule as the data show it: active = GI50 up to about 1.1 µM and inactive = higher.

Columns and labels:
Test in all cases: NCI-60 cell line screen, 48 h
SF-539 = system: SF-539
NCI-H23 = system: NCI-H23
CCRF-CEM = system: CCRF-CEM
SK-MEL-28 = system: SK-MEL-28
OVCAR-5 = system: OVCAR-5
HCT-116 = system: HCT-116
DMS-273 = system: DMS-273
KM-20L2 = system: KM-20L2
DMS-114 = system: DMS-114
Malme-3M = system: Malme-3M
OVCAR-8 = system: OVCAR-8
RPMI-8226 = system: RPMI-8226
UO-31 = system: UO-31
UACC-62 = system: UACC-62
HOP-92 = system: HOP-92
SNB-75 = system: SNB-75
IGROV-1 = system: IGROV-1
HL-60 = system: HL-60

Measured: GI50

C=C(C)[C@H]1CC[C@@]2(C)C(C1)[C@H](C)CC[C@@H]2O (some centres not stated)
inactive: SF-539 > 100 µM | NCI-H23 > 100 µM | CCRF-CEM > 100 µM | SK-MEL-28 > 100 µM | OVCAR-5 > 100 µM | HCT-116 > 100 µM | DMS-273 > 100 µM | KM-20L2 > 100 µM | DMS-114 > 100 µM | Malme-3M > 100 µM | OVCAR-8 > 100 µM | RPMI-8226 > 100 µM | UO-31 > 100 µM | UACC-62 > 100 µM | HOP-92 > 100 µM | SNB-75 > 100 µM | IGROV-1 > 100 µM

CCN/C(=N\Nc1ccc([N+](=O)[O-])cc1)P(=O)(OC(C)C)OC(C)C
inactive: SF-539 > 100 µM | NCI-H23 > 100 µM | CCRF-CEM > 100 µM | SK-MEL-28 99.8 µM | OVCAR-5 > 100 µM | HCT-116 > 100 µM | DMS-273 > 100 µM | KM-20L2 > 100 µM | DMS-114 > 100 µM | Malme-3M 51.2 µM | OVCAR-8 > 100 µM | RPMI-8226 > 100 µM | UO-31 > 100 µM | UACC-62 64 µM | HOP-92 66.5 µM | HL-60 > 100 µM | SNB-75 49.9 µM

Cc1cnc2c(c1)C(=O)C1=C(OC(C)(C)CC1O)C2=O (configuration not stated)
inactive: SF-539 16.4 µM | NCI-H23 10.7 µM | CCRF-CEM 13.2 µM | SK-MEL-28 17.3 µM | OVCAR-5 > 100 µM | HCT-116 14.4 µM | DMS-273 11.9 µM | KM-20L2 17.7 µM | DMS-114 10.4 µM | Malme-3M 14.4 µM | OVCAR-8 15 µM | RPMI-8226 13.6 µM | UO-31 15.7 µM | UACC-62 3.79 µM | HOP-92 16.7 µM | HL-60 4.45 µM | SNB-75 14.4 µM | IGROV-1 15.2 µM

NC1=C(NC(=O)Cc2ccc(F)cc2)C(=O)c2ccccc2C1=O
inactive: SF-539 > 78 µM | NCI-H23 12.2 µM | CCRF-CEM > 53.5 µM | SK-MEL-28 > 100 µM | OVCAR-5 > 100 µM | HCT-116 32 µM | DMS-273 33.1 µM | KM-20L2 > 100 µM | DMS-114 16 µM | Malme-3M 49.5 µM | OVCAR-8 33.1 µM | RPMI-8226 > 100 µM | UO-31 58.1 µM | UACC-62 36.4 µM | HOP-92 23.8 µM | HL-60 35.1 µM | SNB-75 29.2 µM | IGROV-1 23.4 µM

CC[C@@]12N=C(N(C)C)C[C@]1(O)ON=C2C
inactive: SF-539 > 100 µM | NCI-H23 > 100 µM | CCRF-CEM > 100 µM | SK-MEL-28 > 100 µM | HCT-116 > 100 µM | DMS-273 > 100 µM | KM-20L2 > 100 µM | DMS-114 > 100 µM | Malme-3M > 100 µM | OVCAR-8 > 100 µM | RPMI-8226 > 100 µM | UO-31 > 100 µM | HOP-92 > 100 µM | HL-60 > 100 µM | SNB-75 > 100 µM | IGROV-1 > 100 µM

O=C(O)c1ccc(C2=Cc3cc(Cl)ccc3OC2)cc1
inactive: SF-539 > 100 µM | NCI-H23 > 100 µM | CCRF-CEM > 100 µM | SK-MEL-28 > 100 µM | OVCAR-5 > 100 µM | HCT-116 > 100 µM | DMS-273 > 100 µM | KM-20L2 > 100 µM | DMS-114 > 100 µM | Malme-3M > 100 µM | OVCAR-8 > 100 µM | RPMI-8226 > 100 µM | UO-31 90.4 µM | UACC-62 > 100 µM | HOP-92 > 100 µM | HL-60 > 100 µM | SNB-75 22 µM | IGROV-1 > 100 µM

O=C1c2ccccc2N2OC3C4CCC(C4)C3C12c1ccccc1 (configuration not stated)
inactive: SF-539 > 100 µM | NCI-H23 94.6 µM | CCRF-CEM 44.2 µM | SK-MEL-28 87.3 µM | HCT-116 45.5 µM | DMS-273 39.6 µM | KM-20L2 98.2 µM | DMS-114 62.5 µM | Malme-3M > 100 µM | OVCAR-8 > 100 µM | RPMI-8226 37.1 µM | UO-31 71.3 µM | UACC-62 93.8 µM | HOP-92 40.8 µM | HL-60 33.5 µM | SNB-75 > 100 µM | IGROV-1 > 100 µM

CC(C)(C)OC(=O)N1N=NC2C3OC(CC3=O)C21 (configuration not stated)
inactive: SF-539 > 100 µM | NCI-H23 > 100 µM | CCRF-CEM 40.9 µM | SK-MEL-28 > 100 µM | OVCAR-5 > 100 µM | HCT-116 > 100 µM | DMS-273 > 100 µM | KM-20L2 > 100 µM | DMS-114 > 100 µM | Malme-3M > 100 µM | OVCAR-8 > 100 µM | RPMI-8226 > 100 µM | UO-31 > 100 µM | UACC-62 > 100 µM | HOP-92 > 100 µM | SNB-75 > 100 µM | IGROV-1 > 100 µM

O=C(OCC1CO1)c1cccs1 (configuration not stated)
inactive: NCI-H23 > 100 µM | CCRF-CEM > 100 µM | SK-MEL-28 > 100 µM | OVCAR-5 > 100 µM | DMS-273 > 100 µM | KM-20L2 > 100 µM | DMS-114 > 100 µM | Malme-3M > 100 µM | OVCAR-8 > 100 µM | RPMI-8226 > 100 µM | UO-31 > 100 µM | UACC-62 > 100 µM | HOP-92 65.6 µM | HL-60 > 100 µM | SNB-75 37 µM | IGROV-1 > 100 µM

COC(=O)[C@@]12C3=NO[C@]1(C(=O)OC)C(O[Si](C)(C)C(C)(C)C)[C@H]1OC(C)(C)O[C@H]1[C@@H]2C(OCc1ccccc1)CC3 (some centres not stated)
inactive: SF-539 59.2 µM | NCI-H23 80.4 µM | CCRF-CEM > 100 µM | SK-MEL-28 > 100 µM | HCT-116 41.8 µM | DMS-273 52 µM | KM-20L2 71.1 µM | DMS-114 36.6 µM | OVCAR-8 92.5 µM | RPMI-8226 > 100 µM | UO-31 41.3 µM | UACC-62 41.7 µM | HOP-92 2.75 µM | HL-60 6.49 µM | SNB-75 17.9 µM | IGROV-1 42.7 µM

Cn1cnc([N+](=O)[O-])c1Sc1nc2ccccc2s1
inactive: SF-539 12.5 µM | NCI-H23 10.9 µM | SK-MEL-28 9.1 µM | OVCAR-5 14.6 µM | HCT-116 5.47 µM | DMS-273 1.36 µM | KM-20L2 10.4 µM | DMS-114 3.9 µM | Malme-3M 1.84 µM | OVCAR-8 4.07 µM | RPMI-8226 12.5 µM | UO-31 9.57 µM | UACC-62 11.9 µM | HOP-92 2.77 µM | SNB-75 15.6 µM | IGROV-1 11.9 µM

CC12CCC(CC1)C(C)(C)O2 [EUCALYPTOL]
inactive: SF-539 18.3 µM | NCI-H23 16.9 µM | SK-MEL-28 62.4 µM | OVCAR-5 64.7 µM | DMS-273 3.56 µM | KM-20L2 38.8 µM | DMS-114 24.4 µM | Malme-3M 54.6 µM | OVCAR-8 24.4 µM | RPMI-8226 23.4 µM | UO-31 27.7 µM | UACC-62 10 µM | HOP-92 24.3 µM | HL-60 17.1 µM | SNB-75 39.3 µM | IGROV-1 30.4 µM
